Experimental data: patent EP3833345B1, “SMALL MOLECULE-INHIBITORS OF 6-PHOSPHOFRUCTO-1-KINASE FOR REDUCING LACTATE GENERATION BY CANCER CELLS” (Kemijski Institut, priority 2018, dated 2020)

Tests used:
[1] = target: T1, modified (47 kDa) 6-phosphofructo-1-kinase (PFK-M), sfPFK-M fragments (Homo sapiens, UniProt P08237); experiment: in vitro inhibition of purified recombinant modified (cancer-specific) PFK-M fragments; settings: native and modified PFK-M not distinguished
T1 sequence (P08237 1-443 limits assumed): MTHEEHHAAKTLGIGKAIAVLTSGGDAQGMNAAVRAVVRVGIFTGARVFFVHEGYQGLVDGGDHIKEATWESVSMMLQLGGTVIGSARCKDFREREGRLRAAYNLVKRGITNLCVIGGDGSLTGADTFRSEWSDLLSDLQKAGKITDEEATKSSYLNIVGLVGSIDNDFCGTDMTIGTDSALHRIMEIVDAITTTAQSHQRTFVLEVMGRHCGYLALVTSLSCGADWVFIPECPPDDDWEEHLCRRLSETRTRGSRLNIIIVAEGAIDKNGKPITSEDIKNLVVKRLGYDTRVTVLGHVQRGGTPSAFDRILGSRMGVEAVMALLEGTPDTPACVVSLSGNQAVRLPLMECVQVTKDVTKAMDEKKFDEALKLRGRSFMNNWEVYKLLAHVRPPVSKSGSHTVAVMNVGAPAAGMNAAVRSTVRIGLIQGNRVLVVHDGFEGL
Procedure: Initially, all compounds were tested in vitro for inhibition of the purified human native enzyme (85 kDa) and modified cancer-specific shorter fragments (47 kDa) of muscle type PFK-M, followed by measurements of the purified native enzyme (85 kDa) and shorter fragments (70 kDa) of liver type PFK-L isoform.
Selected compounds were tested for in vitro inhibition of isolated recombinant human native and modified PFK-M enzymes.
The yeast transformant encoding the native human PFK-M enzyme was designated as nPFKM strain while transformant encoding cancer specific shorter fragments was designated as sfPFKM strain. […] For the enzymatic measurements, all the substrates (F6P and ATP), auxiliary enzymes, NADH and inhibitors dissolved in DMSO were added first to the buffer with PEG. After thorough mixing of the buffer with all ingredients, the enzymatic reaction started by the insertion of the purified recombinant enzymes.

Jurkat cells = experiment: lactate excretion by Jurkat cells (enzymatic L-lactic acid kit); type: cell-based, human; settings: preliminary test, 100 µM inhibitor, followed for 48 hours, versus DMSO control
Procedure: The cells were incubated in 1 mL volume (24 well plates) at 5% CO2 and 37°C. The inhibitors were added in 100 µM concentration. As a control, equivalent amount of DMSO as used for the addition of inhibitors was supplemented to the medium. The tests started with 1×10^5 cells per mL. Extracellular lactate excreted by the Jurkat cells was measured in the supernatant of the growth medium after the cells were removed by centrifugation at 1500 rpm for 5 minutes. Lactate concentration was determined enzymatically using L-Lactatic acid kit (K-LATE, Megazyme, Ireland).
Measurements of lactate excretion in the tumorigenic Jurkat cells and the cells treated with two selected inhibitors at different concentrations were repeated by more detailed measurements. The growth conditions were identical to those described in Experiment 2. No significant difference in lactate excretion could be observed by the treated and untreated cells during the initial stage of growth that lasted for approximately 12 hours. Later on lactate excretion by the Jurkat cells ceased in the presence of both inhibitors.

MDA-MB-231 cells [2] = experiment: lactate excretion by MDA-MB-231 cells; type: cell-based; settings: single addition; for lactate excretion by MDA-MB-231 cells: different concentrations
Procedure: (§1) Preliminary in vivo tests were run by measuring lactate production by three different tumorigenic cell lines. Again, 100 µM concentrations of tested compounds have been added to the medium. For the experiment, the following tumorigenic cells lines originating from different tumours were tested: Caco-2 cells (Figure 10a), originating from colorectal adenoma carcinoma; COLO 829 cells (Figure 10b), isolated from melanoma; and MDA-MB-231 cells (Figure 10c) derived from metastatic phase of mammary/breast cancer. All adherent cell lines were grown in the RPMI 1640 GlutaMAX substrate (Thermo Fisher) supplemented with 10% FBS.
Inhibitors No. 23, 29, 30 and 31 were tested for preventing lactate generation by the MDA-MB-231 cells. […] No significant discrepancies of total cell numbers were observed (Figure 14e) due to the different concentrations of inhibitors in the medium. […] The average percent of dead MDA-MB-231 cells in the control and in the presence of different concentrations of inhibitors were as follows: inh. 23 (2,98±0,2%), inh. 29 (3,37±0,39%), inh. 30 (3,4±0,21%), inh. 31 (6,87±0,44%). Additionally, cytotoxicity of inh. 3 (7,2±0,47%) and 9 (6,59±0,29%) for MDA-MB-231 cells were also determined. No dose dependent decrease of survival was observed by any inhibitor.
(§2) A decrease in inhibitory effectiveness of some compounds was observed after certain period of time (Example 11). […] Therefore, the influence of selected inhibitors was assessed by sequential re-insertion of low concentrations of inhibitors at indicated time points. The inhibitors were first added to the medium 8 hours after the inoculation followed by periodically additions at 24-hour intervals (marked by arrows).
In MDA-MB-231 calls similar results to those found in Caco-2 cells were observed. […] No significant cytostatic (Figure 17f) or cytotoxic effect of inhibitors could be detected after 92 hours of incubation despite of sequential addition of various concentrations of inhibitors. The following average percentages of dead cells were perceived in the medium without and with inh. 3 (2,05±0,18%), inh. 9 (1,85±0,05%), inh. 23 (2,20±0,15%), inh. 29 (1,54±0,16%) and inh. 30 (2,00±0,18%). No detrimental effects of increased inhibitors concentrations on cell deaths have been observed.

Caco-2 cells [3] = experiment: lactate excretion by Caco-2 cells; type: cell-based; settings: single addition
Procedure: as §1, with “Again, 100 µM concentrations of tested compounds have been added to the medium.” left out, “cancer.” for “cancer. All adherent cell lines were grown in the RPMI 1640 GlutaMAX substrate (Thermo Fisher) supplemented with 10% FBS.”
(§3) Lactate generation, growth yield and survival under normal and inhibitory conditions of three different tumorigenic cells lines were determined in more detailed measurements. […] Cytotoxicity was measured by the Lactate dehydrogenase (LDH) kit (Roche).
Therefore, the influence of selected inhibitors was assessed by sequential re-insertion of low concentrations of inhibitors at indicated time points. The inhibitors were first added to the medium 8 hours after the inoculation followed by periodically additions at 24-hour intervals (marked by arrows).

Caco-2 cells [4] = experiment: cytotoxicity in Caco-2 cells (lactate dehydrogenase (LDH) kit); type: cell-based
Procedure: as §3

COLO 829 cells [5] = experiment: lactate excretion by COLO 829 cells; type: cell-based; settings: for lactate excretion by COLO 829 cells: single addition, different concentrations
Procedure: as §1
On the basis of preliminary results, inhibitors No. 23, 29, 30 and 31 were tested on COLO 829 cells. […] No significant discrepancies of total cell numbers in respect to the control were observed due to the different concentrations of inhibitors in the medium (Figure 13e). The average percent of dead COLO 829 cells in the control and in the presence of different concentrations of inhibitors were as follows: inh. 23 (9,23±0,6%), inh. 29 (9,31±0,73%), inh. 30 (8,27±0,49%), inh. 31 (8,26±0,38%). Additionally, cytotoxicity of inh. 3 (5,01±1,08%) and 9 (3,65±0,78%) for COLO 829 cells were also determined. No dose dependent decrease of survival was observed by any inhibitor.
as §2
No significant cytostatic (Figure 16f) of cytotoxic effect of inhibitors could be detected after 92 hours of incubation despite of sequential addition of various concentrations of inhibitors. The following average percentages of dead cells were perceived in the medium without and media with inh. 3 (1,95±0,15%) inh. 9 (1,70±0,14%), inh. 23 (2,40±0,09%), inh. 29 (1,66±0,25%) and inh. 30 (1,38±0,18%). No detrimental effects of increased inhibitors concentrations on cell deaths have been observed.

COLO 829 cells [6] = experiment: cytotoxicity in COLO 829 cells (LDH kit); type: cell-based; settings: for average percent of dead COLO 829 cells: single addition, average over control and different concentrations of inhibitor
Procedure: as §3

MDA-MB-231 cells [7] = experiment: cytotoxicity in MDA-MB-231 cells (LDH kit); type: cell-based; settings: for average percent of dead MDA-MB-231 cells: single addition, average over control and different concentrations of inhibitor
Procedure: as §3
Inhibitors No. 23, 29, 30 and 31 were tested for preventing lactate generation by the MDA-MB-231 cells.

[8] = sequential addition at 24-hour intervals, 92 hours, average over medium without and with inhibitor

Compound	in vitro PFK-M inhibition [1]	lactate excretion by the Jurkat cells (Jurkat cells)	lactate excretion by MDA-MB-231 cells (MDA-MB-231 cells [2])	lactate excretion by COLO 829 cells (COLO 829 cells [5])	average percent of dead COLO 829 cells (COLO 829 cells [6])	average percent of dead MDA-MB-231 cells (MDA-MB-231 cells [7])	other results
Cc1nnc(COC(=O)c2ccc3noc(-c4ccccc4)c3c2)o1 [Inhibitor No. 8, (5-methyl-1 ,3,4-oxadiazol-2-yl)methyl 3-phenyl-2,1-benzoxazole-5-carboxylate]	no in vitro PFK-M inhibition could be detected	Less efficient reduction of lactate overflow					
CNC(=O)c1nc(CN2CCc3onc(-c4cccc(F)c4)c3C2)no1 [Inhibitor No. 11, 3-{[3-(3-fluorophenyl)-6,7-dihydroisoxazolo[4,5-c]pyridin-5(4H)-yl]methyl}-N-methyl-1,2,4-oxadiazole-5-carboxamide]	no in vitro PFK-M inhibition could be detected	Less efficient reduction of lactate overflow					
CNC(=O)c1nc(CN2CCc3onc(-c4ccccc4F)c3C2)no1 [Inhibitor No. 13, 3-{[3-(2-fluorophenyl)-6,7-dihydroisoxazolo[4,5-c]pyridin-5(4H)-yl]methyl}-N-methyl-1,2,4-oxadiazole-5-carboxamide]	no in vitro PFK-M inhibition could be detected	Less efficient reduction of lactate overflow					
Cc1ccc(-c2cccc(-c3ccn(Cc4nnc(C)o4)n3)c2)nn1 [Inhibitor No. 14]	no in vitro PFK-M inhibition could be detected	Less efficient reduction of lactate overflow					
CS(=O)(=O)Nc1nnc(NC(=O)c2ccc3[nH]c4c(c3c2)CCCC4)s1 [Inhibitor No. 23, N-[5-(methanesulfonamido)-1,3,4-thiadiazol-2-yl]-6,7,8,9-tetrahydro-5H-carbazole-3-carboxamide]			strong inhibition	Slightly weaker inhibition	9,23±0,6%	2,98±0,2%	period of strong inhibition of lactate generation, MDA-MB-231 (MDA-MB-231 cells [2]; later on lactate generation re-appeared): 42 h; period of strong inhibition of lactate generation, Caco-2 (Caco-2 cells [3]; 20-80 µM, later the inhibitory effect was lost): 36 h; lactate generation by Caco-2 cells (Caco-2 cells [3]; different concentrations (20-80 µM)): strong inhibition of lactate generation; average percentages of dead cells, Caco-2, sequential re-insertion (Caco-2 cells [4]; [8]): 4,05±0,54%; average percent of dead cells, Caco-2 (Caco-2 cells [4]; single addition, average over control and different concentrations of inhibitor): 3,35±0,08%; concentration at which comprehensive inhibition of lactate formation was detected, COLO 829 (COLO 829 cells [5]; sequential re-insertion at 24-hour intervals): ≥ 20 µM; average percentages of dead cells, COLO 829, sequential re-insertion (COLO 829 cells [6]; [8]): 2,40±0,09%; average percentages of dead cells, MDA-MB-231, sequential re-insertion (MDA-MB-231 cells [7]; [8]): 2,20±0,15%
O=C(Nc1nnc(-c2ccno2)o1)[C@H]1COc2ccccc2O1 [Inhibitor No. 31, (2R)-N-(5-isoxazol-5-yl-1,3,4-oxadiazol-2-yl)-2,3-dihydro-1,4-benzodioxine-2-carboxamide]			dose dependent inhibition of lactate excretion	some inhibition	8,26±0,38%	6,87±0,44%	
